Measurements taken from patent publication US4965194A, “Pyruvate oxidase and an analytical method using the same” (Toyo Boseki Kabushiki Kaisha, priority 1986, dated 1990).

Tested on: pyruvate oxidase (EC 1.2.3.3) of Lactobacillus sp. TE6103 (FERM BP-1419)
Test: Km determination of the thermostable pyruvate oxidase (physicochemical characteristics of the enzyme)
Assay type: biochemical
Settings: purified enzyme from Lactobacillus sp. TE6103; activity assay at 37° C., pH 7.0, with thiamine pyrophosphate and FAD; read-out: Km for pyruvic acid
Experimental: The activity of the resulting pyruvate oxidase can be measured as follows:
First, from the mixture of the ingredients listed above, 2.5 ml is sampled and placed in a test tube, and 0.5 ml of a 0.3 M solution of potassium pyruvate is added thereto. The mixture is then heated at 37° C. for 5 minutes. To this, 0.05 ml of the enzyme solution is added, and the mixture gently stirred; then, the changes (ΔOD) in the optical density at 500 nm over 1 minute of the mixture at 37° C. are monitored in a spectrophotometer against water. Next, in place of the enzyme solution, 0.05 ml of a 50 mM potassium phosphate buffer (pH 7.0) is used, and the same steps as above are followed to measure the changes (ΔOD) in optical density over 1 minute; this is the blank test. Under these conditions, the enzyme activity of pyruvate oxidase that produces 1 μmol of hydrogen peroxide is taken to be one unit (U).
The physicochemical characteristics of the enzyme activity of this invention will be shown below.

## CC(=O)C(=O)O [pyruvic acid]
  Km: ~400 µM
